Results on ten molecules are retold here after ChEMBL document CHEMBL1201862, “PubChem BioAssay data set” (2004).

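Each compound was tested at five concentrations against cells in 96-well plates for 48 hours. GI50 is the concentration that inhibits growth by half.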 Active and inactive are the calls of the source. Rule as the data show it: active = GI50 up to about 1.1 µM and inactive = higher. Where a SMILES comes first, the peptide text is derived from it. The star is where a group is joined. Boc = CC(C)(C)OC(=O)*; OBn = c1ccc(CO*)cc1 Where only a bound is given, the exact number is not on record here.

Test systems include UACC-62; U-251; DU-145; TK-10; UACC-257; HT-29; OVCAR-5; KM12; IGROV-1; SK-MEL-5; A498; RPMI-8226; Hs-578T; SK-MEL-2; SF-539; OVCAR-3; SN12C; 786-0; T47D; UO-31.
What all share (test): NCI tumour cell line growth inhibition, 48 h

Take `NN=C(CC(O)(C(F)(F)Cl)C(F)(F)Cl)CC(O)(C(F)(F)Cl)C(F)(F)Cl`: the GI50 in the test with UACC-62, in the test with U-251, in the test with DU-145, with TK-10, in the test on UACC-257 and in the test on HT-29 was > 10 µM (inactive) each time. The GI50 with OVCAR-5, with KM12, in the test on IGROV-1, in the test with SK-MEL-5, with A498 and with RPMI-8226 was > 10 µM (inactive) throughout. Further, the GI50 in the test on Hs-578T, in the test on SK-MEL-2, in the test on SF-539, with OVCAR-3, in the test with SN12C and in the test with 786-0 was > 10 µM (inactive) in each case. For the same molecule, the GI50 in the test on T47D is > 10 µM (inactive).

`O=S(=O)(O)c1cc(/N=N/c2cc(S(=O)(=O)O)c3cccnc3c2O)ccc1/C=C/c1ccc(/N=N/c2cc(S(=O)(=O)O)c3cccnc3c2O)cc1S(=O)(=O)O`: the GI50 in the test on UACC-62, with U-251, with DU-145, with TK-10, with UACC-257 and in the test with HT-29 was > 100 µM (inactive) throughout. Further, the GI50 in the test on OVCAR-5 is > 100 µM (inactive); in the test on KM12 it was > 100 µM (inactive); in the test on IGROV-1 it was > 100 µM (inactive); in the test with SK-MEL-5 it was > 100 µM (inactive); in the test on A498, > 100 µM (inactive); in the test with RPMI-8226, > 97.7 µM (inactive). In addition, the GI50 with Hs-578T, in the test on SK-MEL-2, in the test on SF-539, in the test on OVCAR-3, with SN12C and in the test with 786-0 was > 100 µM (inactive) each time. Besides, the GI50 in the test on T47D and in the test on UO-31 was > 100 µM (inactive) each time.

On to `O=c1oc2ccc([N+](=O)[O-])cc2cc1Br`, for which the GI50 is 31.6 µM (inactive) with UACC-62; > 100 µM (inactive) in the test on U-251; > 100 µM (inactive) in the test on DU-145; > 100 µM (inactive) in the test with TK-10; > 100 µM (inactive) with UACC-257; > 100 µM (inactive) in the test on HT-29. The GI50 with OVCAR-5 is > 100 µM (inactive); with KM12, > 100 µM (inactive); with IGROV-1, > 100 µM (inactive); in the test with SK-MEL-5 it was > 100 µM (inactive); in the test with A498, > 100 µM (inactive); with RPMI-8226 it was 53.7 µM (inactive). Besides, the GI50 in the test on Hs-578T, with SK-MEL-2, in the test with SF-539, with OVCAR-3, with SN12C and in the test with 786-0 was > 100 µM (inactive) in each case. Also, the results for the GI50 in the test on T47D and in the test on UO-31 were 70.6 µM (inactive) and > 100 µM (inactive), respectively.

Regarding `Cc1c(C)c(S(=O)(=O)N(CCCCCON)OCCCN)c(C)c2c1OC(C)(C)CC2`, the GI50 in the test on UACC-62 is 14.3 µM (inactive); in the test on U-251, 12.8 µM (inactive); in the test on DU-145, 0.883 µM (active); with TK-10, 14.3 µM (inactive); with UACC-257, 15.9 µM (inactive); with HT-29 it was 9.89 µM (inactive). Further, the GI50 in the test with OVCAR-5 is 14.9 µM (inactive); in the test with KM12 it was 13.9 µM (inactive); in the test on IGROV-1, 10 µM (inactive); with SK-MEL-5, 15.9 µM (inactive); in the test on A498, 14.6 µM (inactive); in the test on RPMI-8226, 9.29 µM (inactive). The GI50 was 19.3 µM (inactive) with Hs-578T; 15.4 µM (inactive) in the test on SK-MEL-2; 15.2 µM (inactive) with SF-539; 14.5 µM (inactive) with OVCAR-3; 15.4 µM (inactive) in the test on SN12C; 16.7 µM (inactive) with 786-0. The GI50 in the test on T47D was 5 µM (inactive); in the test with UO-31 it was 16.6 µM (inactive).

In the case of `O=C(O)c1cccc(S(=O)(=O)NN2C(=O)CSC2c2ccc(Cl)cc2Cl)c1` (centres undefined), the GI50 with UACC-62 was 28.6 µM (inactive); with U-251 it was 21.4 µM (inactive); with DU-145 it was > 100 µM (inactive); in the test on TK-10, > 100 µM (inactive); with UACC-257, 35.2 µM (inactive); with HT-29, 32.5 µM (inactive). The GI50 in the test on OVCAR-5 was > 100 µM (inactive); with KM12 it was 41.7 µM (inactive); with IGROV-1, > 100 µM (inactive); in the test with SK-MEL-5, > 100 µM (inactive); in the test on A498, > 100 µM (inactive); with RPMI-8226 it was 97.3 µM (inactive). For the same molecule, the GI50 in the test on Hs-578T was 19 µM (inactive); in the test with SK-MEL-2 it was 32.3 µM (inactive); with SF-539, 19.5 µM (inactive); in the test on OVCAR-3, 36.1 µM (inactive); with SN12C it was 25.8 µM (inactive); with 786-0, 16 µM (inactive). For the same molecule, the GI50 with T47D and with UO-31 was > 100 µM (inactive) throughout.

As to `CC(C)C1=Cc2ccc3c(c2C(=O)C1=O)CCCC3`, the GI50 in the test on UACC-62 was 7.46 µM (inactive); with U-251, 19.1 µM (inactive); in the test on DU-145, 17.9 µM (inactive); in the test on TK-10, 2.52 µM (inactive); in the test on UACC-257, 3.47 µM (inactive); in the test with HT-29, 9.06 µM (inactive). For the same molecule, the GI50 with OVCAR-5 was 13.9 µM (inactive); with KM12, 17.1 µM (inactive); in the test on IGROV-1, 5.27 µM (inactive); with SK-MEL-5, 7.1 µM (inactive); in the test with A498, 13.1 µM (inactive); with RPMI-8226, 2.12 µM (inactive). In addition, the GI50 is 20.2 µM (inactive) with Hs-578T; 7.35 µM (inactive) in the test on SK-MEL-2; 8.07 µM (inactive) in the test on SF-539; 2.33 µM (inactive) in the test with OVCAR-3; 5.27 µM (inactive) in the test on SN12C; 2.43 µM (inactive) in the test on 786-0. The GI50 in the test with T47D is 0.227 µM (active); with UO-31, 3.31 µM (inactive).

For the molecule `CC(NC(=O)C(Cc1ccccc1)NC(=O)C(Cc1ccccc1)NC(=O)OC(C)(C)C)C(=O)OCc1ccccc1` (stereo not drawn) (Boc-Phe-Phe-Ala-OBn; configuration not given here), the GI50 with UACC-62 is 49.4 µM (inactive); in the test on U-251, 63.7 µM (inactive); in the test with DU-145, > 100 µM (inactive); with TK-10, 76.2 µM (inactive); in the test on UACC-257 it was > 100 µM (inactive); in the test with HT-29, 75.9 µM (inactive). Also, the GI50 in the test with OVCAR-5 is > 100 µM (inactive); in the test on KM12, > 100 µM (inactive); in the test with IGROV-1, > 100 µM (inactive); in the test with SK-MEL-5 it was 94.2 µM (inactive); in the test on A498, > 100 µM (inactive); in the test on RPMI-8226, 32.3 µM (inactive). The GI50 in the test with Hs-578T was 73.3 µM (inactive); in the test with SK-MEL-2, > 100 µM (inactive); with SF-539, 37.9 µM (inactive); with OVCAR-3 it was > 100 µM (inactive); in the test with SN12C it was > 100 µM (inactive); in the test on 786-0 it was > 100 µM (inactive). Also, the GI50 is > 100 µM (inactive) with T47D and 27.7 µM (inactive) in the test on UO-31.

For `CC12CCC(=O)C=C1CCC1C2C(O)CC2(C)C(c3csc(N)n3)CCC12.O=S(=O)(O)c1ccc(Br)cc1` (centres undefined), the GI50 in the test on UACC-62, in the test on U-251, in the test with DU-145, in the test with TK-10, in the test with UACC-257 and in the test with HT-29 was > 100 µM (inactive) in each case. Also, the GI50 in the test with OVCAR-5, in the test on KM12, with IGROV-1, in the test on SK-MEL-5, in the test with A498 and in the test with RPMI-8226 was > 100 µM (inactive) throughout. Further, the GI50 with Hs-578T, in the test with SK-MEL-2, in the test on SF-539, in the test with OVCAR-3, in the test with SN12C and with 786-0 was > 100 µM (inactive) throughout. For the same molecule, the GI50 in the test on T47D and in the test with UO-31 was > 100 µM (inactive) throughout.

Turning to `CCOC(=O)/C=C1\Nc2ccccc2C12CCc1c([nH]c3ccccc13)C2C(=O)OCC` (centres undefined), the GI50 is 59.3 µM (inactive) in the test on UACC-62; > 100 µM (inactive) with U-251; 98.2 µM (inactive) with DU-145; 23.8 µM (inactive) in the test with TK-10; 24 µM (inactive) with UACC-257; 9.08 µM (inactive) in the test with HT-29. Besides, the GI50 is > 100 µM (inactive) in the test on OVCAR-5; 20.5 µM (inactive) with KM12; 8.59 µM (inactive) in the test with IGROV-1; 21.8 µM (inactive) with SK-MEL-5; 30.1 µM (inactive) in the test with A498; 7.52 µM (inactive) in the test with RPMI-8226. In addition, the GI50 was 58.7 µM (inactive) in the test with Hs-578T; 45.5 µM (inactive) in the test on SK-MEL-2; 71.8 µM (inactive) in the test on SF-539; 44.2 µM (inactive) with OVCAR-3; 44.3 µM (inactive) with SN12C; 57.8 µM (inactive) in the test on 786-0. For the same molecule, the GI50 in the test on T47D was 61.2 µM (inactive); in the test with UO-31 it was 21.3 µM (inactive).

With `Cn1c(=S)sc2nc3ccccc3n2c1=S`, the GI50 in the test on UACC-62 is 11.4 µM (inactive); in the test with U-251, 11.5 µM (inactive); in the test on DU-145, 5.35 µM (inactive); with TK-10, 21.2 µM (inactive); with UACC-257, 12.3 µM (inactive); in the test on HT-29, 5.81 µM (inactive). The GI50 in the test with OVCAR-5 is 15.3 µM (inactive); with KM12, 10.2 µM (inactive); with IGROV-1, 12.8 µM (inactive); in the test on SK-MEL-5, 12.2 µM (inactive); with A498, 19.3 µM (inactive); in the test with RPMI-8226 it was 3.78 µM (inactive). Further, the GI50 was 21.6 µM (inactive) in the test with Hs-578T; 51.1 µM (inactive) in the test on SK-MEL-2; 12.8 µM (inactive) in the test on SF-539; 12.1 µM (inactive) in the test with OVCAR-3; 10.6 µM (inactive) in the test on SN12C; 12.7 µM (inactive) in the test with 786-0. Moreover, the GI50 in the test on T47D is 9.84 µM (inactive); with UO-31 it was 5.55 µM (inactive).
